Reference: article PMC2885048 (Molecular cancer therapeutics, 2010)

Columns and labels:
muIDO1 = muIDO1 (Mus musculus, UniProt P28776); assay: kynurenine assay in 293-T-REx cells expressing muIDO1; assay type: cell-based
muIDO2 = biological target: T1, muIDO2 (Mus musculus, UniProt Q8R0V5); assay: kynurenine assay in 293-T-REx cells expressing muIDO2; assay type: cell-based
T1 sequence (Q8R0V5 1-405): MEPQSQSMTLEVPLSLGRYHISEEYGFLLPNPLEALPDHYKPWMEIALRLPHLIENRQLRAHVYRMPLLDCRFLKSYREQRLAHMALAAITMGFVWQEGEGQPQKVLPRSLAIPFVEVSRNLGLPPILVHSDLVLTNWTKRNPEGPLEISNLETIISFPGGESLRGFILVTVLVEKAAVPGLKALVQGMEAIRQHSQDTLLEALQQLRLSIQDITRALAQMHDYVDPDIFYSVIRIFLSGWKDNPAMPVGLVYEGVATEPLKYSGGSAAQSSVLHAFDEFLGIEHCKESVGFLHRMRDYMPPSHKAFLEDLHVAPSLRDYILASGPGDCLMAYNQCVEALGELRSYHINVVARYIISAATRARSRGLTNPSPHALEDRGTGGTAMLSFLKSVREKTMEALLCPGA

Sequence of muIDO1 (P28776 whole entry): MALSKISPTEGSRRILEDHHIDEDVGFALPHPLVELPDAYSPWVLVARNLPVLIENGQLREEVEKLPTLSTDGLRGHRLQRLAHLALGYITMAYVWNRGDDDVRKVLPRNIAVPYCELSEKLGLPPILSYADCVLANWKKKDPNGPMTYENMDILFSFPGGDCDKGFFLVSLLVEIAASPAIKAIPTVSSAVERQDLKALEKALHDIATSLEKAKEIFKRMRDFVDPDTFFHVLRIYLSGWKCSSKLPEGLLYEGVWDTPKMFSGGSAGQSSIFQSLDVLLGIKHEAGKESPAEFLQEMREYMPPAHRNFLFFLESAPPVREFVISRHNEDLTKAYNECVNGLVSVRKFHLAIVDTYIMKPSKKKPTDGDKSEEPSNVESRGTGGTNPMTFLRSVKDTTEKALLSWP

## C=CC1=C(C)C2=Cc3c(C=C)c(C)c4[n]3[Zn][n]3c(c(C)c(CCC(=O)O)c3=CC3=NC(=C4)C(C)=C3CCC(=O)O)=CC1=N2 [ZnPP]
muIDO1
  IC50: 3.3 µM
muIDO2
  IC50: 7.1 µM
